According to ChEMBL document CHEMBL5291721, “A preclinical secondary pharmacology resource illuminates target-adverse drug reaction associations of marketed drugs” (Nat Commun, 2023):

Key:
Progesterone receptor = target: T1, Progesterone receptor (Homo sapiens, UniProt P06401)
T1 sequence (P06401 whole entry): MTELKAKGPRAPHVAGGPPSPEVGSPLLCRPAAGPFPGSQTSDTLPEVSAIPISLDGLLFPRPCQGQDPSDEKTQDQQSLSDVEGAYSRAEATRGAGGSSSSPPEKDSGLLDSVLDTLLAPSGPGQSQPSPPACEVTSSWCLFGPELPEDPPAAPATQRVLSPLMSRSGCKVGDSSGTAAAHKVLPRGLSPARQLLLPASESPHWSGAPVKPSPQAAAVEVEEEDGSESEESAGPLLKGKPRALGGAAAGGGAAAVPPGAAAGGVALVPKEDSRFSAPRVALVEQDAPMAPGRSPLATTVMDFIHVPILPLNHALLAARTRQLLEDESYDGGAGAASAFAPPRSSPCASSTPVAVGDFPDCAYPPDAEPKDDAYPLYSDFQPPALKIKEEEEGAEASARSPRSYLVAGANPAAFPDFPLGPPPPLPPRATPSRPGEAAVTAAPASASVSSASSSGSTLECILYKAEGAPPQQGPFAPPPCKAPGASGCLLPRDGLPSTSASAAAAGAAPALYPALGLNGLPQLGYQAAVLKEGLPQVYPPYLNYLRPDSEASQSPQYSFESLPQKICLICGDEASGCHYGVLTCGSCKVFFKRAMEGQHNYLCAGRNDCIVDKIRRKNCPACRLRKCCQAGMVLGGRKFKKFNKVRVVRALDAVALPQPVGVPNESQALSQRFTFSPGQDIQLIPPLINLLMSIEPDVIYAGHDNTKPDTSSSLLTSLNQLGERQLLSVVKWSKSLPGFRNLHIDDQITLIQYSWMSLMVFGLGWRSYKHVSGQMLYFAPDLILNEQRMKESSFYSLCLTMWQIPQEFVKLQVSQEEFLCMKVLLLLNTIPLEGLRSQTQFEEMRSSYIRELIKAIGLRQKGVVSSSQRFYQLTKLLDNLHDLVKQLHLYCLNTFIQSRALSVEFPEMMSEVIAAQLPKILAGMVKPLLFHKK

[1] = target: T2, 5-hydroxytryptamine receptor 1A (Homo sapiens, UniProt P08908)
T2 sequence (P08908 whole entry): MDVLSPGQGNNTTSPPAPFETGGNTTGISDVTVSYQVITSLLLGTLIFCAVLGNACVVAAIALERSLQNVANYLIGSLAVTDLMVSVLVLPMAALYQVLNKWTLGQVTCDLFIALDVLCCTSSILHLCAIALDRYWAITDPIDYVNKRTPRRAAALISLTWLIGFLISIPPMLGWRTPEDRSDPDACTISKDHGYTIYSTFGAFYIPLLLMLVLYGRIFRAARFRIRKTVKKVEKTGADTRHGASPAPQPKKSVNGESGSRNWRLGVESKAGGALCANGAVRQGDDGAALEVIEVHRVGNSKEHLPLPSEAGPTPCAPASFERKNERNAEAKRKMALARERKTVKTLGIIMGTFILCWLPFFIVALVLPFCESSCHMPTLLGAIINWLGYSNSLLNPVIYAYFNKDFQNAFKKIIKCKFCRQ

[2] = target: Prostaglandin G/H synthase 1 (Homo sapiens, UniProt P23219); format: functional
Histamine H1 receptor = Histamine H1 receptor (Homo sapiens, UniProt P35367)
[3] = target: T2, 5-hydroxytryptamine receptor 1A; format: functional, cell-based
[4] = target: T3, Muscarinic acetylcholine receptor M1 (Homo sapiens, UniProt P11229); format: functional
T3 sequence (P11229 whole entry): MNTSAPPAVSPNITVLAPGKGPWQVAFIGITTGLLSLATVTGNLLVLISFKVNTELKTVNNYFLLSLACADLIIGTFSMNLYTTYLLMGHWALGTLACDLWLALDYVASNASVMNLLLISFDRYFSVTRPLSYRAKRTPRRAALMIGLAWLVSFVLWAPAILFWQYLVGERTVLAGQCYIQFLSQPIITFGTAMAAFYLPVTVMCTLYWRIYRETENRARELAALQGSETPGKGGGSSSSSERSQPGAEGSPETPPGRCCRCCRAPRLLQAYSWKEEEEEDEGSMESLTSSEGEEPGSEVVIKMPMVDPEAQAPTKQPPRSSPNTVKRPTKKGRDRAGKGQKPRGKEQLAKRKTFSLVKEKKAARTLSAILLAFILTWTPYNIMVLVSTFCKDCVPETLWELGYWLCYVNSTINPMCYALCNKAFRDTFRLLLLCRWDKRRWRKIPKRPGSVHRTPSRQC

[5] = target: Gamma-aminobutyric acid receptor subunit alpha-1 (Rattus norvegicus, UniProt P62813)
Endothelin-1 receptor = target: T4, Endothelin-1 receptor (Homo sapiens, UniProt P25101)
T4 sequence (P25101 whole entry): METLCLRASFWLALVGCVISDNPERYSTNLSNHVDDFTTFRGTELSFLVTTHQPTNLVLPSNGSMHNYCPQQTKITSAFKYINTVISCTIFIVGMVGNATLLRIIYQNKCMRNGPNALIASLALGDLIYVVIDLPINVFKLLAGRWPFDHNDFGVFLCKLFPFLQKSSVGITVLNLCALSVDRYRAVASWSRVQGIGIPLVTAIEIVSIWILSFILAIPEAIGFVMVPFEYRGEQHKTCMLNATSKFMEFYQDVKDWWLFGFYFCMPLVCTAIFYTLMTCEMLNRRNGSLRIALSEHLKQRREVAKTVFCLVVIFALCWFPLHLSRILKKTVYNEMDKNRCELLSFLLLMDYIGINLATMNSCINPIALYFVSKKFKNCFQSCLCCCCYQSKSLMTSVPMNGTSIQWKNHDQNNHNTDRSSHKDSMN
Also: assay procedure not described here.

Histamine H1 receptor, sequence (P35367 whole entry): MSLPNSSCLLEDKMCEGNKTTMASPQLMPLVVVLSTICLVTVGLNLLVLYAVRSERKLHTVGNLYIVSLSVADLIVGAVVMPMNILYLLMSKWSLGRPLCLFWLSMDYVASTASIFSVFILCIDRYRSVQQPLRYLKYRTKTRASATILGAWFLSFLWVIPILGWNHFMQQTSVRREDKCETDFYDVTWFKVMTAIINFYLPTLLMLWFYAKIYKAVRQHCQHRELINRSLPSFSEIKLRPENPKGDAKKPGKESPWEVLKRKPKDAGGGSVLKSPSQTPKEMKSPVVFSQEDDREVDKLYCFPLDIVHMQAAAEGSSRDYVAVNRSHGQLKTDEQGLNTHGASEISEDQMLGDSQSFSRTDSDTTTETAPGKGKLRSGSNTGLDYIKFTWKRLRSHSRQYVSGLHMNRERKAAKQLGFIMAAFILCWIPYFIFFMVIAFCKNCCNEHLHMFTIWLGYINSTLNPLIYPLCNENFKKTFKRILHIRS
Gamma-aminobutyric acid receptor subunit alpha-1, sequence (P62813 whole entry): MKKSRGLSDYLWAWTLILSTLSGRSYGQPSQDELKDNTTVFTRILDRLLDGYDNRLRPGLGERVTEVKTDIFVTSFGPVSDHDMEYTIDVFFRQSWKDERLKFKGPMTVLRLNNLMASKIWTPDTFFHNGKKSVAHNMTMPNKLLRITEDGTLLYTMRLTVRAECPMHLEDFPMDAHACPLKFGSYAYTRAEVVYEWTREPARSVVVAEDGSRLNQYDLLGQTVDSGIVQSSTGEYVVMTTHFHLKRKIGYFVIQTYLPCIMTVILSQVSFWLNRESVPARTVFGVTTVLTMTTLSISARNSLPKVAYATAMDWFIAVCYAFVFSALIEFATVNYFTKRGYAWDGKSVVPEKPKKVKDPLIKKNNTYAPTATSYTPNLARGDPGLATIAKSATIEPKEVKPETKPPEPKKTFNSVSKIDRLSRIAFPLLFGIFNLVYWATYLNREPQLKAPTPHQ
Prostaglandin G/H synthase 1, sequence (P23219 whole entry): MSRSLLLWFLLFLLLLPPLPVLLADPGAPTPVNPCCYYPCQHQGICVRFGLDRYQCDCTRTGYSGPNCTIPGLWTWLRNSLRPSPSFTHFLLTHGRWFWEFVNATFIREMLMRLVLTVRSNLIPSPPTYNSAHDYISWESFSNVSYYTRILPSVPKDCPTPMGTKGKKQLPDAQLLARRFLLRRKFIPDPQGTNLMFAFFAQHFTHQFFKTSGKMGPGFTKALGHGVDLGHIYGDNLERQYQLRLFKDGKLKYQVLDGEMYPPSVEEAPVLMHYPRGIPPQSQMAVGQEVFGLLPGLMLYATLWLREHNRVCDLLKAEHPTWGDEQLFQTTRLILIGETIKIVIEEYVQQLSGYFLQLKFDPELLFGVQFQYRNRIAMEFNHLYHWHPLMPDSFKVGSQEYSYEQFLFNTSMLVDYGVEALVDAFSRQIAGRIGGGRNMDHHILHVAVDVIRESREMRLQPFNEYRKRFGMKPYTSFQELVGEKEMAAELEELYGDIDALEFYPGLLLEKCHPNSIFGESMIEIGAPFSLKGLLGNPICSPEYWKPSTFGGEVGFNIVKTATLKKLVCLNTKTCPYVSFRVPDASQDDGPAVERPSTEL

AC50 (Endothelin-1 receptor) [µM]	SMILES	AC50 (Progesterone receptor) [µM]	AC50 [1] [µM]	AC50 [2] [µM]	AC50 (Histamine H1 receptor) [µM]	AC50 [3] [µM]	AC50 [4] [µM]	AC50 [5] [µM]
–	CC(C)(S)[C@@H](N)C(=O)O [PENICILLAMINE]	> 30	> 30	–	–	–	–	–
–	C[N+]1(C)CCC(OC(=O)C(O)(c2ccccc2)C2CCCC2)C1 (stereo not drawn) [GLYCOPYRRONIUM BROMIDE]	> 30	–	–	–	–	–	–
–	C[N+](C)(C)CCO [CHOLINE]	> 30	> 30	> 30	–	–	–	–
–	Oc1c(Cl)cc(Cl)c2cccnc12 [CHLOROXINE]	> 30	17.2	> 30	–	–	–	–
–	CN1C(=O)CCS(=O)(=O)C1c1ccc(Cl)cc1 (stereo not drawn) [CHLORMEZANONE]	–	–	–	> 30	> 10	> 30	> 10
–	CN(C)S(=O)(=O)c1ccc2c(c1)N(CCCN1CCC(CCO)CC1)c1ccccc1S2 [PIPOTIAZINE]	> 30	0.32	> 30	–	–	–	–
–	CCC(=O)NCC[C@@H]1CCc2ccc3c(c21)CCO3 [RAMELTEON]	> 30	> 30	> 30	–	–	–	–
–	CN(C)CCn1nnnc1SCC1=C(C(=O)O)N2C(=O)[C@@H](NC(=O)Cc3csc(N)n3)[C@H]2SC1 [CEFOTIAM]	> 30	> 30	> 30	–	–	–	–
–	Cc1cc(C#N)cc(C)c1Oc1nc(Nc2ccc(C#N)cc2)nc(N)c1Br [ETRAVIRINE]	0.08	> 30	14.4	–	–	–	–
–	CCOC(=O)[C@H](CCc1ccccc1)N[C@@H](C)C(=O)N1[C@H](C(=O)O)C[C@H]2CCCC[C@@H]21 [TRANDOLAPRIL]	> 30	> 30	> 30	–	–	–	–
–	N[C@H](C(=O)O)[C@H](O)c1ccc(O)c(O)c1 [DROXIDOPA]	> 30	> 30	17.8	–	–	–	–
–	O=C(O[C@H]1C[C@H]2CC[C@@H](C1)[N+]21CCCC1)C(O)(c1ccccc1)c1ccccc1 [TROSPIUM]	–	–	–	11	> 30	0.028	> 30
–	O=P1(NCCCl)OCCCN1CCCl (stereo not drawn) [IFOSFAMIDE]	–	–	–	–	> 30	–	> 30
–	COC(c1ccccc1)(c1ccccc1)[C@H](Oc1nc(C)cc(C)n1)C(=O)O [AMBRISENTAN]	> 30	> 30	> 30	–	–	–	–
–	CCCSc1ccc2nc(NC(=O)OC)[nH]c2c1 [ALBENDAZOLE]	–	–	–	–	> 10	–	> 10
–	CN(C)CCN1C(=O)c2ccccc2N(C)c2ccccc21 [DIBENZEPIN]	> 30	0.306	> 30	–	–	–	–
–	CC(=O)N[C@@H]1[C@@H](O)[C@H](O)[C@@H](CO)O[C@H]1O [N-ACETYLGLUCOSAMINE]	> 30	> 30	> 30	–	–	–	–
–	CCCCCCOc1nsnc1C1=CCCN(C)C1 [XANOMELINE]	> 30	0.243	> 30	–	–	–	–
–	CN(C)CC(c1ccc(O)cc1)C1(O)CCCCC1 (stereo not drawn) [DESVENLAFAXINE]	> 30	> 30	> 30	–	–	–	–
–	COCc1c(C(C)C)nc(C(C)C)c(/C=C/[C@@H](O)C[C@@H](O)CC(=O)O)c1-c1ccc(F)cc1 [CERIVASTATIN]	> 30	> 30	> 30	–	–	–	–

AC50 (Endothelin-1 receptor) [µM]	SMILES	AC50 (Progesterone receptor) [µM]	AC50 [1] [µM]	AC50 [2] [µM]	AC50 (Histamine H1 receptor) [µM]	AC50 [3] [µM]	AC50 [4] [µM]	AC50 [5] [µM]
–	CC1(C)NC(=O)N(c2ccc([N+](=O)[O-])c(C(F)(F)F)c2)C1=O [NILUTAMIDE]	12.7	> 30	> 30	> 30	> 30	> 30	> 30
> 30	COc1ccccc1OCC(O)CN1CCN(CC(=O)Nc2c(C)cccc2C)CC1 (stereo not drawn) [RANOLAZINE]	–	–	–	> 30	–	> 30	> 30
–	CCC1=C(C)CN(C(=O)NCCc2ccc(S(=O)(=O)NC(=O)N[C@H]3CC[C@H](C)CC3)cc2)C1=O [GLIMEPIRIDE]	> 30	> 30	> 30	–	–	–	–
–	CN(C)/N=N/c1[nH]cnc1C(N)=O [DACARBAZINE]	–	–	–	–	> 10	–	> 10
–	CC(C)(C)NC[C@H](O)COc1ccccc1C1CCCC1 [PENBUTOLOL]	> 30	0.0036	26.4	–	–	–	–
–	CCc1oc2ccccc2c1C(=O)c1cc(I)c(O)c(I)c1 [BENZIODARONE]	4.27	12.4	29.8	–	–	–	–
–	CC[N+]1(C)[C@@H]2CC(OC(=O)[C@H](CO)c3ccccc3)C[C@H]1[C@@H]1O[C@@H]12 (stereo partly drawn) [OXITROPIUM]	> 30	> 30	> 30	–	–	–	–
–	C[C@]12CC[C@@H]3c4ccc(O)cc4CC[C@H]3[C@@H]1C[C@@H](O)[C@@H]2O [ESTRIOL]	3.3	> 30	> 30	–	–	–	–
–	CN(C)[C@@H](c1cccc(O)c1)[C@H]1CCCC[C@H]1O [CIRAMADOL]	> 30	> 30	> 10	–	–	–	–
–	NS(=O)(=O)Cc1noc2ccccc12 [ZONISAMIDE]	–	–	–	> 10	> 10	> 10	> 10
> 30	CCCCN1C[C@H](O)[C@@H](O)[C@H](O)[C@H]1CO	–	–	–	> 30	–	> 30	> 30
–	CC(C)Nc1ncccn1 [ISAXONINE]	> 30	> 30	> 30	–	–	–	–
–	Cc1cccc(Nc2ccccc2C(=O)O)c1C [MEFENAMIC ACID]	> 30	> 30	0.0343	–	> 10	–	> 10
–	Clc1ccc(C(c2ccccc2Cl)C(Cl)Cl)cc1 (stereo not drawn) [MITOTANE]	–	–	–	–	> 10	–	> 10
–	O=C(O)c1cc(O)ccc1O [GENTISIC ACID]	> 30	> 30	> 30	–	–	–	–
–	C=C[C@H]1C[N@@]2CC[C@H]1C[C@H]2[C@H](O)c1ccnc2ccc(OC)cc12 [QUININE]	> 30	> 30	> 30	–	–	–	–
–	OCCN1C[C@H](O)[C@@H](O)[C@H](O)[C@H]1CO [MIGLITOL]	> 30	> 30	> 30	–	–	–	–
–	O=C(CCNNC(=O)c1ccncc1)NCc1ccccc1 [NIALAMIDE]	> 30	> 30	1.65	–	–	–	–
–	N[C@@H](C(=O)N[C@@H]1C(=O)N2C(C(=O)O)=C(Cl)CC[C@H]12)c1ccccc1 [LORACARBEF ANHYDROUS]	> 30	> 30	> 30	–	–	–	–

SMILES	AC50 (Endothelin-1 receptor) [µM]	AC50 (Progesterone receptor) [µM]	AC50 [1] [µM]	AC50 [2] [µM]	AC50 (Histamine H1 receptor) [µM]	AC50 [3] [µM]	AC50 [4] [µM]	AC50 [5] [µM]
COc1cc(NC(C)CCCN)c2ncccc2c1 (stereo not drawn) [PRIMAQUINE]	> 30	15.4	–	–	–	–	–	–
